{"source": "paper PMC10275055", "about": "“Preventing recurrence in Sonic Hedgehog Subgroup Medulloblastoma using the OLIG2 inhibitor CT-179” (Research Square, 2023)", "target": "T1, OLIG2 dimerization (Homo sapiens, UniProt Q13516)", "T1 construct": "expressed in transfected cells; host or cells: HEK293", "T1 sequence (Q13516 1-323)": "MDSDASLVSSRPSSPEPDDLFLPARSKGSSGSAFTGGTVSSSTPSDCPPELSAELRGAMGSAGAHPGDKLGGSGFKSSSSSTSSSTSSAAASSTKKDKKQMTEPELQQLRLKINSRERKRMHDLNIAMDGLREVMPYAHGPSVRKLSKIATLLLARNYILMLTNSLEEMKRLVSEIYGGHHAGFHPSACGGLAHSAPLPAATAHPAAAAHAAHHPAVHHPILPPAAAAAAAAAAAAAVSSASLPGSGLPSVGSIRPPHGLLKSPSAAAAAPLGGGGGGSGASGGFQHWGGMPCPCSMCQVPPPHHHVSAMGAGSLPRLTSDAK", "assay": "FCCS of OLIG2 dimerization in live HEK293 cells co-transfected with OLIG2-eGFP and OLIG2-Tomato", "format": "cell-based", "experimental": "HEK293 cells were maintained in a humidified atmosphere containing 5 % CO2 at 37 °C in Dulbecco’s Modified Eagle Medium supplemented with 10 % fetal bovine serum (FBS) and antibiotics (100 U/mL penicillin and 100 μg/mL streptomycin). One day before the transfection, HEK293 cells were split into Lab-Tek 8-well chambered Coverglass (Thermo Fisher Scientific). HEK293 cells on and 8-well chamber were transfected with plasmid DNA (OLIG2-eGFP and OLIG2-Tomato; or with eGFP and Tomato as negative control) using Lipofectamine 2000 (Thermo Fisher Scientific). After the transfection, HEK293 cells were cultured for 24 h at 37 °C. […]\nCLSM imaging and FCCS measurements were performed using an LSM880 microscope system (Carl Zeiss, Germany) equipped with an Ar-ion laser with three lines: 458 nm, 488 nm and 514 nm, 543 nm He-Ne laser, and a water immersion objective lens (C-Apochromat, 40×, 1.2 N.A., Corr, Carl Zeiss), and a gallium arsenide phosphide (GaAsP) spectral array detector and photomultiplier tube (PMT) spectral array detector. eGFP and Tomato were excited using 488 nm laser and 543 nm laser, respectively. […] The emitted fluorescence was split by a diffraction grating and detected using a GaAsP detector (wavelength range 496–534 nm for eGFP) and a PMT detector (wavelength range 580–758 nm for Tomato). […]\nData acquired by FCCS was analyzed using the ZEN software (Carl Zeiss). […]"}
{"smiles": "Cc1cc(NCCCN(C)C)nc(NC(=O)Nc2ccc(Cl)c(Cl)c2)n1", "note": "[CT-179]", "values": [{"measurement": "relative cross-correlation amplitude (RCA)", "setting": "1 μM for one hour", "value": "significantly decreased"}, {"measurement": "allosteric factor, nallo", "setting": "best fit of RCA dose-response curve", "value": "−0.66"}]}
